The record followed here is EP0338756B1, “Use of 1,2,4-trioxanes as antiparasitics and anthelmintics” (OXACO S.A., priority 1988, dated 1989).

The test system of experiment [1] is Onchocerca gutturosa. Kind of experiment: Onchocerca gutturosa motility, using parasites, medium, serum, cells and test drugs. As to conditions: with serum and cells. The method, then: (§1) Testing in vitro against Onchocerca gutturosa is a valid model for activity against Onchocerca volvulus. Testing of test drugs (Compounds 1, 2, 3, 4, 5, 7, 8, 9, 11, and 12 of Table 1) against the parasitic worms Onchocerca gutturosa was carried out in accordance with the method described in J Helminth (1987) 60, 271, firstly using parasites, medium, serum, cells and test drugs.

For experiment [2], the system named is Onchocerca gutturosa. Description: Tetrazolium colorimetric test (formazan formation), using parasites, medium, cells and test drug. As to conditions: 5x10⁻⁵ M printed for the test Compounds. On the procedure: A suitable colorimetric assay uses formation of formazan, a blue dye, from tetrazolium cation generated by 3-[…] bromide (J Helminth (1987) 60, 271). Firstly, Compounds 1, 2, 3, 4, 5, 7, 8, 9, 11 and 12, along with artemisinin and arteether were tested using parasites, medium, cells and test drug.

Experiment [3] has as its system Onchocerca gutturosa. Description: Onchocerca gutturosa motility, using parasites, medium and drug. As to conditions: medium and drug only, time not given. On the procedure: as §1, with “drugs. Secondly, test drugs (Compounds 2, 3, 4, 7, 8, 9 and 12 of Table 1) were tested using parasites, medium and drug. […] However, between 4 and 7 days, all the tested Compounds had completely immobilized the worms. Under these conditions, commercial anti-helminthic drugs and artemisinin also cut motility by some 30-40%.” for “drugs.”

For the molecule `CC1(C)OO[C@]2(c3ccccc3)CCC(c3ccccc3)=C[C@@H]2O1` (relative stereo) [Compound 12], in experiment [1] (after 7 days), the reduced motility stood at 100%. Further, the effect on motility entry in experiment [1] (two to three days exposure) is given as “markedly inhibitory”. Besides, in experiment [2], the “inhibition of formazan formation” value is given as “more than 90%”.

On to `CCO[C@H]1O[C@@H]2O[C@@]3(C)CC[C@H]4[C@H](C)CC[C@@H]([C@H]1C)[C@@]24OO3` [arteether], for which the reduced motility in experiment [1] (after a day) is listed as 30%.

With `C[C@@H]1CC[C@H]2[C@@H](C)C(=O)O[C@@H]3O[C@@]4(C)CC[C@@H]1[C@]32OO4` [artemisinin, Artemisinin], in experiment [1] (a day's exposure), the effect on motility entry is reported as “ineffective”. For the same molecule, the cut motility in experiment [3] was 30-40%.
